Experimental data taken from ChEMBL document CHEMBL3885881, “DrugMatrix”.

Species on record: Rattus norvegicus
Assay: DrugMatrix - Regimen: Daily Repeat
Assay type: toxicity, organism-based, Sprague-Dawley
Parameters: regimen Daily Repeat, gender Male, age 6-8 weeks
Settings: in vivo, po, route oral GAVAGE, vehicle .5 % CMC; for BASOPHIL / EOSINOPHIL / ERYTHROCYTE COUNT / HEMATOCRIT / HEMOGLOBIN / LEUKOCYTE COUNT / LYMPHOCYTE / MEAN CORPUSCULAR HEMOGLOBIN / MEAN CORPUSCULAR HEMOGLOBIN CONCENTRATION / MEAN CORPUSCULAR VOLUME / MONOCYTE / NEUTROPHIL / PLATELET COUNT: tissue Blood; for ALANINE AMINOTRANSFERASE / ALBUMIN / ALKALINE PHOSPHATASE / ASPARTATE AMINOTRANSFERASE / BLOOD UREA NITROGEN / CHLORIDE / CHOLESTEROL / CREATINE PHOSPHOKINASE / CREATININE / GLUCOSE / PHOSPHORUS / POTASSIUM / SODIUM / TOTAL BILIRUBIN / TOTAL PROTEIN: tissue Plasma
[1] = 0 mg/kg, 72 h, dose level Control, time 3 day
[2] = 0 mg/kg, 120 h, dose level Control, time 5 day
[3] = 21 mg/kg, 72 h, dose level Low, time 3 day
[4] = 21 mg/kg, 120 h, dose level Low, time 5 day

For `Cc1onc(-c2ccccc2)c1-c1ccc(S(N)(=O)=O)cc1` [VALDECOXIB], the BASOPHIL [1] was 0.68%, the EOSINOPHIL [1] was 0.46% and the “ERYTHROCYTE COUNT” value [1] was 7.15 x10E6/uL. For the same compound, the HEMATOCRIT [1] was 45.44%, the HEMOGLOBIN [1] was 14.1 G/DL and the “LEUKOCYTE COUNT” value [1] was 9.78 x10E3/uL. The LYMPHOCYTE [1] was 84.44%, the “MEAN CORPUSCULAR HEMOGLOBIN” value [1] was 19.72 pg and the “MEAN CORPUSCULAR HEMOGLOBIN CONCENTRATION” value [1] was 31 G/DL. For the same compound, the “MEAN CORPUSCULAR VOLUME” value [1] was 63.66 fL, the MONOCYTE [1] was 2.14% and the NEUTROPHIL [1] was 11.16%. The “PLATELET COUNT” value [1] was 1378.2 x10E3/uL, the “ALANINE AMINOTRANSFERASE” value [1] was 42.33 u/L and the ALBUMIN [1] was 3.8 G/DL. The “ALKALINE PHOSPHATASE” value [1] was 388.17 u/L, the “ASPARTATE AMINOTRANSFERASE” value [1] was 68 u/L and the “BLOOD UREA NITROGEN” value [1] was 16.17 mg/dL. The CHLORIDE [1] was 96.67 MEQ/L, the CHOLESTEROL [1] was 71 mg/dL and the “CREATINE PHOSPHOKINASE” value [1] was 156.17 u/L. The CREATININE [1] was 0.57 mg/dL, the GLUCOSE [1] was 193.67 mg/dL and the PHOSPHORUS [1] was 11.43 mg/dL. For the same compound, the POTASSIUM [1] was 7 MEQ/L, the SODIUM [1] was 140.33 MEQ/L and the “TOTAL BILIRUBIN” value [1] was 0.48 mg/dL. For the same compound, the “TOTAL PROTEIN” value [1] was 6.8 G/DL, the BASOPHIL [2] was 1.47% and the EOSINOPHIL [2] was 1%. For the same compound, the “ERYTHROCYTE COUNT” value [2] was 7.12 x10E6/uL, the HEMATOCRIT [2] was 45.47% and the HEMOGLOBIN [2] was 14.1 G/DL. The “LEUKOCYTE COUNT” value [2] was 11.38 x10E3/uL, the LYMPHOCYTE [2] was 82.57% and the “MEAN CORPUSCULAR HEMOGLOBIN” value [2] was 19.82 pg. The “MEAN CORPUSCULAR HEMOGLOBIN CONCENTRATION” value [2] was 31.02 G/DL, the “MEAN CORPUSCULAR VOLUME” value [2] was 63.88 fL and the MONOCYTE [2] was 2.2%. The NEUTROPHIL [2] was 11.97%, the “PLATELET COUNT” value [2] was 1267 x10E3/uL and the “ALANINE AMINOTRANSFERASE” value [2] was 38 u/L. For the same compound, the ALBUMIN [2] was 3.72 G/DL, the “ALKALINE PHOSPHATASE” value [2] was 391 u/L and the “ASPARTATE AMINOTRANSFERASE” value [2] was 65.83 u/L. For the same compound, the “BLOOD UREA NITROGEN” value [2] was 14.17 mg/dL, the CHLORIDE [2] was 107.67 MEQ/L and the CHOLESTEROL [2] was 61 mg/dL. For the same compound, the “CREATINE PHOSPHOKINASE” value [2] was 148.33 u/L, the CREATININE [2] was 0.57 mg/dL and the GLUCOSE [2] was 177.17 mg/dL. The PHOSPHORUS [2] was 12.07 mg/dL, the POTASSIUM [2] was 7.2 MEQ/L and the SODIUM [2] was 151.5 MEQ/L. The “TOTAL BILIRUBIN” value [2] was 0.58 mg/dL, the “TOTAL PROTEIN” value [2] was 6.72 G/DL and the BASOPHIL [3] was 0.53%. The EOSINOPHIL [3] was 0.4%, the “ERYTHROCYTE COUNT” value [3] was 6.91 x10E6/uL and the HEMATOCRIT [3] was 43%. For the same compound, the HEMOGLOBIN [3] was 13.7 G/DL, the “LEUKOCYTE COUNT” value [3] was 11.32 x10E3/uL and the LYMPHOCYTE [3] was 84.1%. For the same compound, the “MEAN CORPUSCULAR HEMOGLOBIN” value [3] was 19.8 pg, the “MEAN CORPUSCULAR HEMOGLOBIN CONCENTRATION” value [3] was 31.87 G/DL and the “MEAN CORPUSCULAR VOLUME” value [3] was 62.2 fL. For the same compound, the MONOCYTE [3] was 2.17%, the NEUTROPHIL [3] was 11.67% and the “PLATELET COUNT” value [3] was 1322.33 x10E3/uL. For the same compound, the “ALANINE AMINOTRANSFERASE” value [3] was 35 u/L, the ALBUMIN [3] was 3.63 G/DL and the “ALKALINE PHOSPHATASE” value [3] was 309 u/L. For the same compound, the “ASPARTATE AMINOTRANSFERASE” value [3] was 58.33 u/L, the “BLOOD UREA NITROGEN” value [3] was 13 mg/dL and the CHLORIDE [3] was 95.33 MEQ/L. For the same compound, the CHOLESTEROL [3] was 78.33 mg/dL, the “CREATINE PHOSPHOKINASE” value [3] was 150 u/L and the CREATININE [3] was 0.47 mg/dL. For the same compound, the GLUCOSE [3] was 190 mg/dL, the PHOSPHORUS [3] was 11.8 mg/dL and the POTASSIUM [3] was 6.2 MEQ/L. The SODIUM [3] was 139 MEQ/L, the “TOTAL BILIRUBIN” value [3] was 0.2 mg/dL and the “TOTAL PROTEIN” value [3] was 6.43 G/DL. The BASOPHIL [4] was 1.7%, the EOSINOPHIL [4] was 5.9% and the “ERYTHROCYTE COUNT” value [4] was 7.33 x10E6/uL. The HEMATOCRIT [4] was 45.75%, the HEMOGLOBIN [4] was 14.55 G/DL and the “LEUKOCYTE COUNT” value [4] was 9.46 x10E3/uL. For the same compound, the LYMPHOCYTE [4] was 42.8%, the “MEAN CORPUSCULAR HEMOGLOBIN” value [4] was 19.85 pg and the “MEAN CORPUSCULAR HEMOGLOBIN CONCENTRATION” value [4] was 31.85 G/DL. The “MEAN CORPUSCULAR VOLUME” value [4] was 62.35 fL, the MONOCYTE [4] was 1.7% and the NEUTROPHIL [4] was 47.25%. For the same compound, the “PLATELET COUNT” value [4] was 1408 x10E3/uL, the “ALANINE AMINOTRANSFERASE” value [4] was 30.33 u/L and the ALBUMIN [4] was 3.67 G/DL. For the same compound, the “ALKALINE PHOSPHATASE” value [4] was 296.33 u/L, the “ASPARTATE AMINOTRANSFERASE” value [4] was 52.67 u/L and the “BLOOD UREA NITROGEN” value [4] was 12.67 mg/dL. For the same compound, the CHLORIDE [4] was 104 MEQ/L, the CHOLESTEROL [4] was 61 mg/dL and the “CREATINE PHOSPHOKINASE” value [4] was 128.67 u/L. For the same compound, the CREATININE [4] was 0.43 mg/dL, the GLUCOSE [4] was 196 mg/dL and the PHOSPHORUS [4] was 12.73 mg/dL. The POTASSIUM [4] was 7.17 MEQ/L, the SODIUM [4] was 149.67 MEQ/L and the “TOTAL BILIRUBIN” value [4] was 0.43 mg/dL. The “TOTAL PROTEIN” value [4] was 6.7 G/DL.
